# Read-outs that look alike come from different tables or passages of the source.
# What was measured:
# XccFPR [1] = target: T1, XccFPR (Xanthomonas citri pv. citri, UniProt A0AAI7ZED9); test: NADPH-dependent DCPIP diaphorase activity of XccFPR, dose-response of inhibitors; assay type: biochemical, Xanthomonas citri subsp. citri; settings: for inhibitory effect on XccFPR (in words): C12 derived compounds D1–D8
# T1 sequence (A0AAI7ZED9 1-259): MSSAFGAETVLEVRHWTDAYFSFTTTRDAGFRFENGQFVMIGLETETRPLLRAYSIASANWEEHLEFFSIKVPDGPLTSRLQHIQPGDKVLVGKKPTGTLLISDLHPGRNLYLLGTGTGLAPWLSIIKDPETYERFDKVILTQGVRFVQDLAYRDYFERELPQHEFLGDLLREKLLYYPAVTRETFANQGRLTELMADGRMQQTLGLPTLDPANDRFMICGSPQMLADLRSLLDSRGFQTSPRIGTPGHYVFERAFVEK
# Method: (§1) When assayed in regular cuvettes, the DCPIP diaphorase activity of XccFPR was determined at 25 °C using a Cary 100 (Agilent Technologies Inc., Santa Clara, CA, USA) spectrophotometer as previously established. […] Positive controls (without any hit compound) were included in every reaction set. […] The DMSO concentration was kept at 2% in all samples. All kinetic experiments were performed in triplicate. The effect of the inhibitors on Km and kcat was determined by fitting the datasets to the Michaelis-Menten model. Additionally, data were globally fit to either Lineweaver-Burk equations for uncompetitive or non-competitive inhibition, yielding Ki for each compound (Equations (1) and (2), respectively).
# XccFPR [2] = target: T1, XccFPR; test: Inhibition constants and mechanisms, XccFPR diaphorase activity as a function of NADPH at increasing inhibitor concentrations; assay type: biochemical, Xanthomonas citri subsp. citri; settings: 25 °C, 50 mM Tris/HCl, 2% DMSO, pH 8.0; for Ki: global fit to Lineweaver–Burk inhibition model; for Inhibition Mechanism: versus NADPH
# Method: as §1
# (1) [e]/V0=(1+[I]/K^′i)/kcat+Km/kcat·1/[S]
# (2) [e]/V0=(1+[I]/Ki)/kcat+(1+[I]/Ki)·Km/kcat·1/[S]
# AnFNR = target: T2, AnFNR (Nostoc sp., UniProt P21890); test: NADPH-dependent DCPIP diaphorase activity of AnFNR, dose-response of inhibitors; assay type: biochemical, Anabaena PCC 7119; settings: 95 µM DCPIP, 50 μM NADPH; for IC50 / ICmax (concentration causing maximal inhibition): 25 °C, 2% DMSO, pH 8.0, 4 nM AnFNR; for IC50: 50 mM Tris/HCl, compound 0–800 μM; for % Inhibition at ICmax: 4 nM AnFNR
# T2 construct: made in house; host or cells: Escherichia coli
# Method: We finally assessed the selectivity of our XccFPR inhibitors by testing the diaphorase activity of the plastidic Anabaena PCC 7119 FNR (AnFNR) at increasing concentrations of D2, D5 and D8 (Table 3).
# as §1
# XccFPR [3] = target: T1, XccFPR; test: Thermal stability of XccFPR, midpoint temperature for flavin release (TmFAD); assay type: binding, Xanthomonas citri subsp. citri; settings: 4 µM XccFPR
# Description: The increase in fluorescence of the FAD cofactor when dissociated from the protein upon thermal unfolding was used to evaluate XccFPR stability under different conditions and to assess related midpoint temperature for flavin release (TmFAD). Fluorescence thermal denaturation curves were monitored on 96-well plates using a Stratagene Mx3005P qPCR detection system (Agilent Technologies Inc., Santa Clara, CA, USA). A FAM filter set (λexc = 492 nm; λem = 516 nm), which overlaps the fluorescence spectrum of the isoalloxazine ring was used to evaluate XccFPR midpoint temperature for flavin release (TmFAD) when free or in the presence of selected compounds. Measurements were performed using 4 µM protein in 50 mM Tris/HCl, pH 8.0 in a 100 µL final volume. Each measurement was done in triplicate.
# XccFPR [4] = target: T1, XccFPR; settings: ferricyanide as electron acceptor; cited from earlier work
# XccFPR [5] = target: T1, XccFPR; test: Steady-state kinetic parameters of XccFPR NADPH-dependent DCPIP diaphorase activity; assay type: biochemical, Xanthomonas citri subsp. citri
# Method: When assayed in regular cuvettes, the DCPIP diaphorase activity of XccFPR was determined at 25 °C using a Cary 100 (Agilent Technologies Inc., Santa Clara, CA, USA) spectrophotometer as previously established. […] Positive controls (without any hit compound) were included in every reaction set. […] All kinetic experiments were performed in triplicate. The effect of the inhibitors on Km and kcat was determined by fitting the datasets to the Michaelis-Menten model. Additionally, data were globally fit to either Lineweaver-Burk equations for uncompetitive or non-competitive inhibition, yielding Ki for each compound (Equations (1) and (2), respectively).
# Xcc [6] = test: Xcc growth inhibition on SB-agar plates; assay type: cell-based, Xanthomonas citri subsp. citri; settings: 24 h at 28 °C
# Method: (§2) To evaluate the sensitivity of Xcc to C5, C12, C17 and C19, 100 µL of a bacterial suspension (containing ~10^9 cells mL^−1) were mixed with 4 mL of SB medium (5 g L^−1 sucrose, 5 g L^−1 yeast extract, 5 g L^−1 peptone, and 1 g L^−1 glutamic acid, pH 7.0) and 0.7% (w v^−1) molten agar and poured onto SB-1.5% (w v^−1) agar plates supplemented with 25 µg mL^−1 ampicillin. After hardening, 2 µL of a 10, 100 and 1000 µM solution of each compound were added onto the agar surface. The zones of growth inhibition were photographed after incubation for 24 h at 28 °C. To assess the compound inhibition effect on Xcc growth in liquid medium, overnight cultures were subcultured into fresh SB medium at 2% inoculums and grown for 6 h in the presence of 1 mM C12. Samples were removed at 0, 2, 4 and 6 h, serially diluted and plated on SB-1.5% (w v^−1) agar. Colonies were counted after 48 h of incubation at 28 °C.
# Xcc [7] = test: Xcc growth/viability in liquid SB medium (colony-forming capacity); assay type: cell-based, Xanthomonas citri subsp. citri; settings: 1 mM compound, 28 °C, 0–6 h, control 2% DMSO
# Method: as §2
# [8] = 25 °C, 2% DMSO, pH 8.0, 20 nM XccFPR, 95 µM DCPIP, 50 μM NADPH
# [9] = compound 1 mM, NADP+ 50 µM, DMSO 2 %
# [10] = compound 2 mM, NADP+ 50 µM, DMSO 2 %
# T2 sequence (P21890 138-440 limits assumed): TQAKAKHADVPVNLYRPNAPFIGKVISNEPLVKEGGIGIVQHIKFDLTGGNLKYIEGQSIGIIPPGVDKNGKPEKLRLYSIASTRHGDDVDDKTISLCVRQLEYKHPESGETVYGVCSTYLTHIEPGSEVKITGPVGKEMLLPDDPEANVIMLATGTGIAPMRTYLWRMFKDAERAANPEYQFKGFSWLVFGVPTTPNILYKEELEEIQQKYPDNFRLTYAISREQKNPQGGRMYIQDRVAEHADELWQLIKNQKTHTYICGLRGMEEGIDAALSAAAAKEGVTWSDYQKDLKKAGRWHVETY
smiles,measurement,setting,value
"Cc1c(S(=O)(=O)c2ccc(Cl)cc2)csc1C(=O)Nc1ccc(F)cc1F [D8, 4-(4-chlorobenzenesulfonyl)-N-(2,4-difluorophenyl)-3-methylthiophene-2-carboxamide]",IC50,XccFPR [1],38 ± 1 µM
same,inhibitory effect on XccFPR (in words),XccFPR [1],moderate IC50 but high concentrations were required to abolish XccFPR activity
same,% Inhibition at ICmax,XccFPR [1]; [8],100 ± 1%
same,Ki,XccFPR [2],62 ± 19 µM
same,Inhibition Mechanism,XccFPR [2],Non-competitive
same,IC50,AnFNR,122 ± 1 µM
same,ICmax (concentration causing maximal inhibition),AnFNR,>350 µM
same,% Inhibition at ICmax,AnFNR,~73%
"O=C(Nc1ccc(Cl)cc1)Nc1nnc(SCc2ccc(Cl)cc2)s1 [D5, 1-[5-(4-Chloro-benzylsulfanyl)-[1,3,4]thiadiazol-2-yl]-3-(4-chloro-phenyl)-urea]",IC50,XccFPR [1],6.6 ± 1.1 µM
same,% Inhibition at ICmax,XccFPR [1]; [8],100 ± 2%
same,Ki,XccFPR [2],4.3 ± 1.1 µM
same,Inhibition Mechanism,XccFPR [2],Non-competitive
same,IC50,AnFNR,102 ± 1 µM
same,ICmax (concentration causing maximal inhibition),AnFNR,>300 µM
same,% Inhibition at ICmax,AnFNR,~47%
same,TmFAD,"XccFPR [3]; compound 1 mM, DMSO 2 %",41.4 ± 0.1 °C
same,ΔTmFAD,"XccFPR [3]; compound 1 mM, DMSO 2 %",0.4±0.2 °C
same,TmFAD,XccFPR [3]; [9],46.9 ± 0.1 °C
same,ΔTmFAD,XccFPR [3]; [9],5.9±0.2 °C
"NC(=O)C1=CN([C@@H]2O[C@H](COP(=O)(O)OP(=O)(O)OC[C@H]3O[C@@H](n4cnc5c(N)ncnc54)[C@H](OP(=O)(O)O)[C@@H]3O)[C@@H](O)[C@H]2O)C=CC1 [NADPH, reference compound]",kcat,XccFPR [4],122 ± 18 s⁻¹
same,kcat,"XccFPR [5]; NADPH-dependent DCPIP diaphorase activity, 25 °C, pH 8.0",22.6 ± 2.3 s⁻¹
same,Km,"XccFPR [5]; read-out: Km^NADPH, DCPIP as electron acceptor, 25 °C, pH 8.0",6.6 ± 1.1 µM
C[S+](C)[O-] [DMSO],ΔTmFAD,XccFPR [3]; DMSO 2 %,-0.4±0.2 °C
same,TmFAD,"XccFPR [3]; DMSO 2 %, 50 mM Tris/HCl",40.6 ± 0.1 °C
same,TmFAD,XccFPR [3]; DMSO 5 %,39.0 ± 0.1 °C
same,TmFAD,XccFPR [3]; DMSO 10 %,37.7 ± 0.1 °C
same,effect of solvent on XccFPR enzyme activity,XccFPR [5]; DMSO below 3%,did not modify the kinetic parameters
same,effect of solvent on XccFPR enzyme activity,XccFPR [5]; DMSO percentages larger than 3%,decreased the maximal rate constant
"CSc1sc(NC(=O)Nc2ccc(F)c(Cl)c2)c(-c2ccc(Cl)cc2)c1C#N [C12, 1-(3-chloro-4-fluorophenyl)-3-[3-(4-chlorophenyl)-4-cyano-5-(methylsulfanyl)thiophen-2-yl]urea]",IC50,XccFPR [1],7.7 ± 1 µM
same,Ki,XccFPR [2],4.2 ± 0.9 µM
same,Inhibition Mechanism,XccFPR [2],Non-competitive
same,Xcc growth inhibition on solid SB medium,"Xcc [6]; 2 µL of 10, 100 and 1000 µM solutions",inhibited Xcc growth at all concentrations assayed
same,lowest concentration assayed that inhibited Xcc growth,Xcc [6]; solid SB medium,10 µM
same,growth inhibition in liquid medium (bacterial viability),Xcc [7],decrease of bacterial viability
NC(=O)c1ccc[n+]([C@@H]2O[C@H](COP(=O)([O-])OP(=O)(O)OC[C@H]3O[C@@H](n4cnc5c(N)ncnc54)[C@H](OP(=O)(O)O)[C@@H]3O)[C@@H](O)[C@H]2O)c1 [NADP^+],TmFAD,"XccFPR [3]; NADP+ 50 µM, DMSO 2 %",46.7 ± 0.1 °C
same,ΔTmFAD,"XccFPR [3]; NADP+ 50 µM, DMSO 2 %",5.7±0.2 °C
same,TmFAD,"XccFPR [3]; NADP+ 50 µM, no DMSO",47.2 ± 0.1 °C
same,ΔTmFAD,"XccFPR [3]; NADP+ 50 µM, no DMSO",6.2±0.2 °C
CSc1sc(NC(=O)Nc2cccc(C(F)(F)F)c2)cc1C#N [D2],ICmax (concentration causing maximal inhibition),"XccFPR [1]; 25 °C, 50 mM Tris/HCl, 2% DMSO, pH 8.0, 20 nM XccFPR, 95 µM DCPIP, 50 μM NADPH",175 ± 1 µM
same,IC50,"XccFPR [1]; 25 °C, 50 mM Tris/HCl, 2% DMSO, pH 8.0, 20 nM XccFPR, 95 µM DCPIP, 50 μM NADPH, compound 0–800 μM",26 ± 1 µM
same,inhibitory effect on XccFPR (in words),XccFPR [1],moderate IC50 but high concentrations were required to abolish XccFPR activity
same,% Inhibition at ICmax,XccFPR [1]; [8],100 ± 1%
same,Ki,XccFPR [2],28 ± 2 µM
same,Inhibition Mechanism,XccFPR [2],uncompetitive inhibitor
same,IC50,AnFNR,27 ± 1 µM
same,ICmax (concentration causing maximal inhibition),AnFNR,100 ± 2 µM
same,% Inhibition at ICmax,AnFNR,99 ± 11%
same,TmFAD,"XccFPR [3]; compound 2 mM, DMSO 2 %",41.7 ± 0.1 °C
same,ΔTmFAD,"XccFPR [3]; compound 2 mM, DMSO 2 %",0.7±0.2 °C
same,TmFAD,XccFPR [3]; [10],46.0 ± 0.1 °C
same,ΔTmFAD,XccFPR [3]; [10],5.0±0.2 °C
